# Like-named read-outs stand apart in the source and are kept apart here.
# Molecular target: BTK (Homo sapiens, UniProt Q06187)
# Assay: biochemical
# [1] = read-out: BTK inhibition (%), 0.75 uM BTK, […] probe 3l, 15 min preincubation
# BTK, sequence (Q06187 402-655 limits assumed): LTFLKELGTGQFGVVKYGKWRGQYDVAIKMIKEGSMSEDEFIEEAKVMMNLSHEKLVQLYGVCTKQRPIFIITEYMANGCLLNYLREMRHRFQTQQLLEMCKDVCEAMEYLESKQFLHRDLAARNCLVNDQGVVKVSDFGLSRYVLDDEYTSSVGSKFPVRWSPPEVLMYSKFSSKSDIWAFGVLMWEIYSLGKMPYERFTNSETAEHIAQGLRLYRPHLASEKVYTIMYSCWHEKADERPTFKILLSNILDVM
inhibition at 10 µM [1] [%],Compound,inhibition at 10 µM (read-out: BTK inhibition (%)) [%]
-14,O[C@@H](CNC[C@H](O)[C@H]1CCc2cc(F)ccc2O1)[C@@H]1CCc2cc(F)ccc2O1 [PCM-0095721],–
-14.8,CCOC(=O)CCC(=O)O[C@H]1[C@H](O[C@@H]2[C@@H](C)[C@H](O[C@H]3C[C@@](C)(OC)[C@@H](O)[C@H](C)O3)[C@@H](C)C(=O)O[C@H](CC)[C@@](C)(O)[C@H](O)[C@@H](C)C(=O)[C@H](C)C[C@@]2(C)O)O[C@H](C)C[C@@H]1N(C)C [PCM-0214733],–
-17.1,CCCCCCCN(CC)CCCC(O)c1ccc(NS(C)(=O)=O)cc1 (centres unmarked) [PCM-0086483],–
21.6,O=C(NCCCNc1nc(Nc2cccc(CN3CCOCC3)c2)ncc1C1CC1)C1CCC1 [PCM-0215642],–
19.3,CN(C)CC[C@H](CSc1ccccc1)Nc1ccc(S(=O)(=O)NC(=O)c2ccc(N3CCN(Cc4ccccc4-c4ccc(Cl)cc4)CC3)cc2)cc1[N+](=O)[O-] [PCM-0095734],–
52.4,CC(C)c1onc(-c2c(Cl)cccc2Cl)c1COc1ccc(/C=C/c2cccc(C(=O)O)c2)c(Cl)c1 [PCM-0095360],–
6.9,Cn1nccc1Nc1nccc(-c2cc3c(s2)C(C)(C)N(CCN2CCOCC2)C3=O)n1 [PCM-0215875],–
-11.7,CCOc1ccc2ccccc2c1C(=O)N[C@@H]1C(=O)N2[C@@H]1SC(C)(C)[C@@H]2C(=O)O [PCM-0214744],–
13.8,O=C(O)c1ccc2c3c1cccc3c(=O)n1c3ccccc3nc21 [PCM-0215754],–
-6.9,C=C1C[C@@H]2[C@H](CC[C@]3(C)C(=O)CC[C@@H]23)[C@@]2(C)C=CC(=O)C=C12 [PCM-0214605],–
3.9,C=CC/C(=N\OS(=O)(=O)O)S[C@@H]1O[C@H](CO)[C@@H](O)[C@H](O)[C@H]1O [PCM-0216356],–
-3.1,CC(NC(=O)[C@H](Cc1ccccc1)NC(=O)OCc1ccccc1)C(=O)CF (some centres unmarked) [PCM-0215313],–
-10.8,O=C(NO)c1cnc(NC2(c3ccccc3)CC2)nc1 [PCM-0215891],–
23.9,CC(C)C12CCC(C)(CC1)O2 [PCM-0216156],–
-16.3,O=C(O)CCCCC1CCSS1 (centres unmarked) [PCM-0090722],–
-25.7,C[C@@]1(c2cc(-c3cncnc3)c(F)cc2F)CCSC(N)=N1 [PCM-0095088],–
23.8,CCNC(=O)[C@@H]1CCCN1C(=O)[C@H](CCCN=C(N)N)NC(=O)[C@H](CC(C)C)NC(=O)[C@@H](C)NC(=O)[C@H](Cc1ccc(O)cc1)NC(=O)[C@H](CO)NC(=O)[C@H](Cc1c[nH]c2ccccc12)NC(=O)[C@H](Cc1cnc[nH]1)NC(=O)C1CCC(=O)N1 (some centres unmarked) [PCM-0216272],–
59.5,Cc1cc(C)nc(NS(=O)(=O)c2ccc(NC(=S)NC(=O)COc3ccc(Br)cc3Cl)cc2)n1 [PCM-0095801],–
0.8,CN1CCc2c(c3ccccc3n2Cc2ccc(C(=O)NO)cc2)C1 [PCM-0095487],–
26.2,C[C@@H]1CN(CC(=O)Nc2ccc3c(c2)Cc2cccc(-c4cc(=O)cc(N5CCOCC5)o4)c2S3)C[C@H](C)O1 [PCM-0095132],–
-20.2,CCC(=O)NCC[C@@H]1CCc2ccc3c(c21)CCO3 [PCM-0090528],–
-20.1,C[C@@H]1CC[C@@]2(OC1)O[C@H]1C[C@H]3[C@@H]4CC=C5C[C@@H](O[C@@H]6O[C@H](CO)[C@@H](O)[C@H](O)[C@H]6O)CC[C@]5(C)[C@H]4CC[C@]3(C)[C@H]1[C@@H]2C [PCM-0216366],–
30.1,Fc1ccc(-c2c3cccc(C(F)(F)F)c3nn2Cc2ccc(F)cc2Cl)cc1 [PCM-0215789],–
47.9,COc1cc(O)c2c(c1)oc(=O)c1c3cc(O)c(O)cc3oc21 [PCM-0216602],–

inhibition at 10 µM [1] [%],Compound,inhibition at 10 µM (read-out: BTK inhibition (%)) [%]
-17.2,CCCCC1C(=O)N(c2ccccc2)N(c2ccccc2)C1=O [PCM-0065475],–
-48.6,C[C@@H](OC[C@@]1(c2ccccc2)CC[C@]2(CCC(=O)N2)CN1)c1cc(C(F)(F)F)cc(C(F)(F)F)c1 [PCM-0216647],–
37.2,Cc1cc(S(=O)(=O)O)c2c(C)ccc(C(C)C)cc1-2 [PCM-0216127],–
-7.6,Cc1nc(NC(=O)N2CCC[C@H]2C(N)=O)sc1-c1ccnc(C(C)(C)C(F)(F)F)c1 [PCM-0095427],–
30.1,O=C(NNc1nc2cc(F)ccc2n2cccc12)c1cnccn1 [PCM-0215229],–
7.7,O=C(O)[C@H](O)Cc1ccc(O)c(O)c1 [PCM-0215761],–
18.6,C[S+]([O-])c1ccc(-c2nc(-c3ccc(F)cc3)c(-c3ccncc3)[nH]2)cc1 (centres unmarked) [PCM-0095024],–
-18.5,C[N+]12CCc3cc4c(cc3C1(O)Cc1ccc3c(c1C2)OCO3)OCO4 (centres unmarked) [PCM-0216462],–
17.8,COc1cc2nc(N3CCCC3)nc(NCCCCCN3CCCC3)c2cc1OC [PCM-0215440],–
28.3,O=C(NOCCO)c1ccc2cncn2c1Nc1ccc(I)cc1F [PCM-0215498],–
-45.6,CC(C)=CC(O)C/C(C)=C/COc1c2ccoc2cc2oc(=O)ccc12 (centres unmarked) [PCM-0216460],–
-0.8,O=C(NCCN1CCOCC1)Nc1ccc(C(=O)/C=C/c2cccc(N3CCOCC3)n2)cc1 [PCM-0215849],–
13.9,Cc1cccc(-c2[nH]ncc2-c2ccc3ncccc3n2)n1 [PCM-0065277],–
11.7,O=C1Nc2ccccc2C1=O [PCM-0214846],–
-16.3,COc1ccc2cccc(CCNC(C)=O)c2c1 [PCM-0065343],–
23.2,Cc1cc(=O)c(C(=O)N[C@@H](C(=O)N[C@@H]2C(=O)N3C(C(=O)O)=C(CSc4nnnn4C)CS[C@H]23)c2ccc(O)cc2)c[nH]1 [PCM-0216260],–
-17.8,Cc1cc(C)cc(Oc2ccc(CNC(=O)[C@H](C)N)cc2C)c1 [PCM-0215829],–
0.8,Cc1cc(OCc2nnc(SC3CCCC3)n2-c2cccnc2)ccc1-c1ccc(S(C)(=O)=O)cc1 [PCM-0095789],–
6.9,CCCCC[C@H](O)/C=C/[C@H]1[C@H](O)CC(=O)[C@@H]1CCCCCCC(=O)O [PCM-0086285],–
22.4,Cc1nnsc1C(=O)Nc1ccc(-n2nc(C(F)(F)F)cc2C(F)(F)F)cc1 [PCM-0215731],–
–,CN1[C@@H]2CC[C@H]1CC(O)C2 (some centres unmarked) [PCM-0215128],-7.8
1.6,N#C[C@@H]1CCCN1C(=O)CNC12CC3CC(CC(O)(C3)C1)C2 [PCM-0095499],–
27.2,COc1ccc2cc1Oc1ccc(cc1)C[C@H]1c3cc(c(OC)cc3CCN1C)Oc1c(O)c(OC)cc3c1[C@H](C2)N(C)CC3 [PCM-0214877],–
28.6,CC1(C)C=Cc2cc(-c3coc4cc(O)ccc4c3=O)ccc2O1 [PCM-0216531],–

inhibition at 10 µM [1] [%],Compound,inhibition at 10 µM (read-out: BTK inhibition (%)) [%]
-18.7,CCCCCCCCCCCCCC(=O)OCC(COC(=O)CCCCCCCCCCCCC)OC(=O)CCCCCCCCCCCCC [PCM-0216465],–
60,Cc1cnc(Nc2ccc(F)cc2Cl)nc1-c1c[nH]c(C(=O)N[C@H](CO)c2cccc(Cl)c2)c1 [PCM-0213398],–
36.6,Cc1cc(C#N)cc(C)c1Oc1nc(Nc2ccc(C#N)cc2)nc(N)c1Br [PCM-0095562],–
-28,CCOC(=O)C1=C(C)NC(C)=C(C(=O)OC)C1c1cccc([N+](=O)[O-])c1 (centres unmarked) [PCM-0064714],–
-7.8,CC(=O)[C@H]1CC[C@H]2[C@@H]3CCC4=CC(=O)CC[C@]4(C)[C@H]3CC[C@]12C [PCM-0064761],–
80,CCOc1cc2ncc(C#N)c(Nc3ccc(OCc4ccccn4)c(Cl)c3)c2cc1NC(=O)/C=C/CN(C)C [PCM-0095315],–
-2.3,CC(C)(C)c1ccc(S(=O)(=O)NCc2ccc(C(=O)Nc3cccnc3)cc2)cc1 [PCM-0215545],–
7,CO[C@H]1/C=C/O[C@@]2(C)Oc3c(C)c(O)c4c(O)c(c5c(c4c3C2=O)=NC2(CCN(CC(C)C)CC2)N=5)NC(=O)/C(C)=C\C=C\[C@H](C)[C@H](O)[C@@H](C)[C@@H](O)[C@@H](C)[C@H](OC(C)=O)[C@@H]1C [PCM-0095185],–
-1.4,O=C[C@H](O)[C@H]1OC(=O)[C@@H](O)[C@H]1O [PCM-0215140],–
-6.8,NCCC(O)(P(=O)(O)O)P(=O)(O)O [PCM-0094901],–
9.3,CC1(C)C=C(CN2C/C(=C\c3ccc(F)cc3)C(=O)/C(=C/c3ccc(F)cc3)C2)C(C)(C)N1O [PCM-0095780],–
16.2,CC(C)=CCOc1ccc(/C=C/C(=O)c2ccc(OCC=C(C)C)cc2OCC(=O)O)cc1 [PCM-0216579],–
86.5,c1ccc(Cn2c(-c3ccc(OC[C@H](C4CCNCC4)n4c(-c5ccccc5)nc5ccccc54)cc3)nc3ccccc32)cc1 [PCM-0215350],–
9.7,Cc1ccc(Cl)c(Nc2ccccc2C(=O)O)c1Cl [PCM-0214800],–
0,C[C@]12CC[C@H](O)CC1=CC[C@@H]1[C@@H]2CC[C@]2(C)C(n3cnc4ccccc43)=CC[C@@H]12 [PCM-0095399],–
-1.6,CCOC(=O)[C@H](CCc1ccccc1)N[C@H]1CS[C@H](c2cccs2)CN(CC(=O)O)C1=O [PCM-0095261],–
109,Cc1cc(N2CCOCC2)cc2[nH]c(-c3c(NC[C@@H](O)c4cccc(Cl)c4)cc[nH]c3=O)nc12 [PCM-0214699],–
2.6,O=C(O)c1cc(=O)c2c(OCC(O)COc3cccc4oc(C(=O)O)cc(=O)c34)cccc2o1 [PCM-0086401],–
18.7,C=C1C(=O)O[C@H]2[C@H]1CC/C(C)=C/CC[C@@]1(C)O[C@@H]21 [PCM-0214682],–
11.7,O=C(/C=C/c1ccc2ccccc2n1)c1ccncc1 [PCM-0215310],–
70.3,COc1ccc(S(=O)(=O)N(CCO)c2ccccc2CN(C)C/C=C/c2ccc(Cl)cc2)cc1 [PCM-0215495],–
33.8,c1cn2cc(-c3ccc4cn[nH]c4c3)nc(Nc3ccc(N4CCOCC4)cc3)c2n1 [PCM-0095758],–

Compound,inhibition at 10 µM [1] [%],inhibition at 10 µM (read-out: BTK inhibition (%)) [%]
CC(C)=CCC[C@](C)(O[C@@H]1O[C@H](CO[C@@H]2O[C@H](CO)[C@@H](O)[C@H](O)[C@H]2O)[C@@H](O)[C@H](O)[C@H]1O)[C@H]1CC[C@]2(C)[C@@H]1[C@H](O)C[C@@H]1[C@@]3(C)CC[C@H](O[C@@H]4O[C@H](CO)[C@@H](O)[C@H](O)[C@H]4O)C(C)(C)[C@@H]3CC[C@]12C [PCM-0216463],4.6,–

# Reference: article PMC8041284, “Tunable Methacrylamides for Covalent Ligand Directed Release Chemistry” (Journal of the American Chemical Society, 2021)
